Paper PMC6271950, “LC-MS/MS Determination and Pharmacokinetic Study of Dehydrocorydaline in Rat Plasma after Oral Administration of Dehydrocorydaline and Corydalis yanhusuo Extract” (Molecules, 2014)
Each block holds one compound with its values, some of them ahead of it.

Legend:
[1] = Urinary cumulative excretion of DHC after a single oral dose; assay type: in vivo, Sprague-Dawley rats; conditions: rat, single oral dose 97.5 mg/kg, over 96 h
Experimental: (§1) The cumulative excretion of DHC in bile and urine after a single i.g. dose of DHC (97.5 mg/kg) was determined. […] However, the urinary cumulative excretion of DHC was little. The mean accumulated amount of DHC in urine over 96 h was 0.17% ± 0.13% of dose. […] There might be a huge “first pass” effect in liver after oral administration and account for the trace plasma concentration.
For urinary excretion study, four rats were used. DHC was administered as described above. The animals were housed in stainless steel metabolic cages with free access to tap water. Urine was collected at 0–4, 4–8, 8–12, 12–24, 24–36, 36–60, 60–84 and 84–96 h post-dosing and kept at −20 °C after the volume of each collection was recorded.
(§2) A 200 μL aliquot of plasma was vortex mixed for 3 min with 200 μL of water and 50 μL of IS (800 ng/mL). After centrifugation at 9000 rpm for 10 min, all the supernatant was loaded onto an Oasis HLB cartridge (Waters, Milford, MA, USA), which was pre-conditioned with 1 mL of methanol followed by 1 mL of deionized water. The loaded-cartridge was sequentially washed with 1 mL of water and 1 mL of 20% methanol. The analytes were then eluted with 1 mL of methanol in water containing 2% formic acid. […]
(§3) An Agilent 1100 system (Palo Alto, CA, USA) equipped with a vacuum degasser, a quaternary pump, and an auto-sampler were used. […] [26, 27, 28] were monitored for DHC and IS, respectively. […]

[2] = Plasma pharmacokinetics of DHC after oral administration of pure DHC or EFY; assay type: in vivo, Sprague-Dawley rats; conditions: Sprague-Dawley, DHC in rat plasma, equivalent dose of 97.5 mg/kg DHC (EFY 483 mg/kg), n = 5, mean ± SD
Experimental: DHC is the most abundant quaternary protoberberine-type alkaloid in EFY and has clear cardiovascular pharmacological activity. A fully validated LC-ESI-MS/MS method was developed and was successfully applied to a pharmacokinetic study of DHC when given in the two different dosage forms (EFY and pure compound) via oral administration in rats. The doses of DHC and EFY were 97.5 mg/kg and 483 mg/kg (equivalent to 97.5 mg/kg DHC), respectively. The mean plasma concentration-time profiles of DHC after the two doses are illustrated in Figure 5 and the estimated pharmacokinetic parameters are presented in Table 5.
For pharmacokinetics study, the rats were divided into two groups (n = 5 per group). Doses of 97.5 mg/kg of DHC or 483 mg/kg of EFY (equivalent to 97.5 mg/kg DHC, 20.19% DHC in EFY) were all gavage administrated. Blood samples (500 μL) were withdrawn from the oculi chorioideae vein into heparinized tubes before dosing and subsequently at 15, 30 and 45 min and then at 1, 2, 4, 6, 8, 12 and 24 h following initial administration. After 1 h and 8 h, 2 mL of normal saline was injected into the caudal vein to compensate for blood loss. After centrifuging at 4000 rpm for 10 min, plasma samples were obtained and frozen at −20 °C until analysis.
A 200 μL aliquot of plasma was vortex mixed for 3 min with 200 μL of water and 50 μL of IS (800 ng/mL). After centrifugation at 9000 rpm for 10 min, all the supernatant was loaded onto an Oasis HLB cartridge (Waters, Milford, MA, USA), which was pre-conditioned with 1 mL of methanol followed by 1 mL of deionized water. The loaded-cartridge was sequentially washed with 1 mL of water and 1 mL of 20% methanol. The analytes were then eluted with 1 mL of methanol in water containing 2% formic acid. The collected eluate was evaporated to dryness at 40 °C under a gentle stream of nitrogen. The residue was reconstituted in 150 μL of 10% acetonitrile, and 30 μL of the resulting sample was injected into the LC-MS/MS system for assay. Bile and urine samples were all processed in a similar manner as the plasma samples.
An Agilent 1100 system (Palo Alto, CA, USA) equipped with a vacuum degasser, a quaternary pump, and an auto-sampler were used. Chromatographic separation was achieved on an Atlantis T3 column (100 mm × 2.1 mm, 5 μm; Waters, Milford, MA, USA), which was eluted with a mobile phase of acetonitrile and water (containing 0.8% formic acid and 10 mM ammonium acetate) (28:72, v/v). The mobile phase was delivered at a flow-rate of 0.25 mL/min and 40% of the eluate was introduced into an API 3000 triple-quadrupole mass spectrometer (Applied Biosystems MDS SCIEX, Concord, ON, Canada) equipped with a TurboIonSpray electrospray ionization (ESI) source. Detection was performed using positive-ion electrospray ionization in multiple reaction monitoring (MRM) modes. The transitions from molecular ion to dominant product ion m/z 366→351[M−CH3] and m/z 348→332[M−CH3−H] [26, 27, 28] were monitored for DHC and IS, respectively. The optimized working parameters for mass detection were as follows. The nebulizer, curtain, and collision-activated dissociation gases were set at 11, 7 and 11 (instrument units), respectively. The TurboIonSpray voltage and temperature were set at 4.5 kV and 400 °C, respectively. All data acquisition was performed using Analyst software (v1.4, AB MDS SCIEX).
Pharmacokinetic parameters were established from the plasma concentration–time data using non-compartmental analysis. The terminal elimination rate constant (Ke) was determined by linear regression of the terminal portion of the plasma concentration-time data. The elimination half-life (t1/2) was calculated using the expression: t1/2 = ln2/Ke(2) The area under the curve (AUC) for the plasma concentration-time trace from zero to the last plasma drug concentration (AUC0–t) was calculated using the trapezoidal rule. […]

[3] = Stability of DHC in rat plasma (QC samples); assay type: in vitro ADME; conditions: for Cdec (mean ± S.D.): n = 6
Experimental: This is evidenced by the fact that the responses varied no more than ±10% over 24 h at the QC concentrations. After storage at ambient temperature for 12 h, the concentration of DHC in the plasma deviated less than ±13% from those in freshly-spiked plasma (Table 3).
The stability of DHC in rat plasma was evaluated under conditions that mimicked those likely to be encountered during sample storage and analytical processing. Six replicates of QC samples were analyzed for DHC. The QC samples were frozen and stored at −20 °C for a week. The concentration variation of the DHC in the prepared QC samples was detected after (i) three cycles of freezing and thawing, (ii) placement in an auto-sampler at 4 °C for 24 h, and (iii) storing at ambient temperature for 12 h.

[4] = Biliary cumulative excretion of unchanged DHC after a single oral dose; assay type: in vivo, Sprague-Dawley rats; conditions: rat, single oral dose 97.5 mg/kg
Experimental: as §1
For biliary excretion study, four rats were light anesthetized by ether and a PE-10 cannula was implanted into the bile duct to collect bile. A single dose of DHC was administered as described above. Bile samples were collected at 0–2, 2−4, 4−6, 6−8, 8−10, 10−24 and 24−48 h post-dosing and kept at −20 °C after the volume of each collection was recorded.
as §2, with “methanol.” for “methanol. The analytes were then eluted with 1 mL of methanol in water containing 2% formic acid.”
as §3

[5] = design: method as in PMID 16956957; conditions: 1 h after oral administration, in situ intestinal loop; cited from earlier work
cytochrome P450 3A4 = test system: cytochrome P450 3A4; design: method as in PMID 16133554; conditions: cited from earlier work
P-glycoprotein = test system: P-glycoprotein; design: method as in PMID 12530470, PMID 12434406; conditions: efflux in Caco-2 cells and the liver; cited from earlier work
[6] = after three freeze-thaw cycles, Cnom 1.25 ng/mL
[7] = after three freeze-thaw cycles, Cnom 25 ng/mL
[8] = after three freeze-thaw cycles, Cnom 250 ng/mL
[9] = postpreparative stability (24 h, auto-sampler 4 °C), Cnom 1.25 ng/mL
[10] = postpreparative stability (24 h, auto-sampler 4 °C), Cnom 25 ng/mL
[11] = postpreparative stability (24 h, auto-sampler 4 °C), Cnom 250 ng/mL
[12] = short-term temperature stability (12 h, ambient), Cnom 1.25 ng/mL
[13] = short-term temperature stability (12 h, ambient), Cnom 25 ng/mL
[14] = short-term temperature stability (12 h, ambient), Cnom 250 ng/mL

mean accumulated amount of DHC in urine [1]: 0.17% ± 0.13%
AUC(0-inf) [2]: 59.1 ± 11.5 ng·h/mL
AUC(0-t) [2]: 52.4 ± 12.8 ng·h/mL
Cmax [2]: 9.4 ± 4.18 ng/mL
Tmax [2]: 1 h
half-life [2]: 7.93 ± 1.34 h
k el ([2]; read-out: Ke (converted)): 2.5e-05 s⁻¹
variation in the concentration from nominal concentration ([3]; after three cycles of freezing and thawing, rat plasma): ≤ 15%
Relative Error [3, 6]: −0.27%
Cdec (mean ± S.D.) [3, 6]: 1.25 ± 0.1 ng/mL
Relative Error [3, 7]: 10%
Cdec (mean ± S.D.) [3, 7]: 27.5 ± 0.87 ng/mL
Relative Error [3, 8]: 9.07%
Cdec (mean ± S.D.) [3, 8]: 272.67 ± 8.14 ng/mL
Relative Error [3, 9]: −5.47%
Cdec (mean ± S.D.) [3, 9]: 1.18 ± 0.06 ng/mL
Relative Error [3, 10]: 4.8%
Cdec (mean ± S.D.) [3, 10]: 26.2 ± 0.86 ng/mL
Relative Error [3, 11]: 8.14%
Cdec (mean ± S.D.) [3, 11]: 270.33 ± 9.42 ng/mL
variation of responses ([3]; processed samples in auto-sampler at 4 °C over 24 h, QC concentrations): ≤ 10%
Relative Error [3, 12]: −3.87%
Cdec (mean ± S.D.) [3, 12]: 1.2 ± 0.1 ng/mL
Relative Error [3, 13]: −12.13%
Cdec (mean ± S.D.) [3, 13]: 21.97 ± 0.51 ng/mL
Relative Error [3, 14]: −7.73%
Cdec (mean ± S.D.) [3, 14]: 230.67 ± 15.96 ng/mL
deviation of concentration from freshly-spiked plasma ([3]; storage at ambient temperature for 12 h, rat plasma): < 13%
mean accumulated amount of DHC in bile ([4]; in 2 h): 12.2% ± 7.38%
total biliary excretion of unchanged DHC ([4]; up to 48 h): 60.04% ± 24.66%
SMILES: COc1cc2c(cc1OC)-c1c(C)c3ccc(OC)c(OC)c3c[n+]1CC2 [DHC, dehydrocorydaline]

SMILES: COc1ccc2cc3[n+](cc2c1OC)CCc1cc2c(cc1-3)OCO2 [berberine]
absorbed amount [5]: 33.6 % of the given dose
cytochrome P450 3A4 inhibition (cytochrome P450 3A4): weak cytochrome P450 3A4 inhibitor
P-glycoprotein substrate (P-glycoprotein): substrate of P-glycoprotein
